Among the data in patent US9884818B2, “Sulphamoylpyrrolamide derivatives and the use thereof as medicaments for the treatment of hepatitis B” (Janssen Sciences Ireland UC, priority 2013, dated 2018) are EC50 and CC50 values, retold here.

One data set has as its system HBV. The data set can be described thus: Anti-HBV activity, HepG2.117 inducibly HBV producing cell line (Tet-off), intracellular HBV DNA by realtime PCR. The format is cell-based. Conditions: Hepatitis B virus, HepG2.117, 72 h, HepG2.117 cells, 3 days of treatment, intracellular HBV DNA; read-out: HepG2 117 EC50.
The nature of data set [1]: Cytotoxicity in HepG2 cells, Resazurin viability assay. Conditions: human, HepG2 cells, HepG2 4 days CC50 (μM), incubated for 4 days, Resazurin assay. (The colour change of resazurin is a common sign of viable cells or microbes.)

`C=Cc1c(S(=O)(=O)N[C@H](C)C(F)(F)F)c(F)c(C(=O)Nc2ccc(F)c(C#N)c2)n1C` [Compound 311, N-(3-cyano-4-fluoro-phenyl)-3-fluoro-1-methyl-4-[[(1R)-2,2,2-trifluoro-1-methyl-ethyl]sulfamoyl]-5-vinyl-pyrrole-2-carboxamide]: the EC50 (usually the concentration at which the effect is half-maximal) in the data set with HBV stood at 0.06 µM. Also, the CC50 (usually the concentration giving 50% cytotoxicity) at 4 days in data set [1] was > 25 µM.
For `C[C@@H](NS(=O)(=O)c1c(Cl)c(C(=O)Nc2ccc(F)c(C#N)c2)n(C)c1C1CC1)C(F)(F)F` [Compound 302, 3-chloro-N-(3-cyano-4-fluoro-phenyl)-5-cyclopropyl-1-methyl-4-[[(1R)-2,2,2-trifluoro-1-methyl-ethyl]sulfamoyl]pyrrole-2-carboxamide] the same measures were 0.03 µM and > 25 µM.
For `C[C@@H](NS(=O)(=O)c1c(F)c(C(=O)Nc2ccc(F)c(C#N)c2)n(C)c1C1CC1)C(F)(F)F` [Compound 304, N-(3-cyano-4-fluoro-phenyl)-5-cyclopropyl-3-fluoro-1-methyl-4-[[(1R)-2,2,2-trifluoro-1-methyl-ethyl]-sulfamoyl]-pyrrole-2-carboxamide] the same measures were 0.01 µM and > 25 µM.
On the same counts, the results for `C[C@@H](NS(=O)(=O)c1cn(C)c(C(=O)Nc2ccc(F)c(C#N)c2)c1F)C(C)(F)F` [Compound 317, N-(3-cyano-4-fluoro-phenyl)-4-[[(1R)-2,2-difluoro-1-methyl-propyl]sulfamoyl]-3-fluoro-1-methyl-pyrrole-2-carboxamide] are 0.006 µM and > 25 µM.
In the case of `Cc1cc(NC(=O)c2cc(S(=O)(=O)NC(C)(C)C(=O)O)cn2C)ccc1F` [Compound 61, 2-[[5-[(4-fluoro-3-methyl-phenyl)carbamoyl]-1-methyl-pyrrol-3-yl]-sulfonylamino]-2-methyl-propanoic acid], in the data set with HBV, the EC50 was > 1 µM. Besides, the CC50 at 4 days in data set [1] is > 25 µM.
On the same counts, the results for `COCC(C)(NS(=O)(=O)c1cc(C(=O)Nc2cc(F)c(F)c(Cl)c2)n(C)c1)C(F)(F)F` (centres unmarked) [Compound 73, N-(3-chloro-4,5-difluoro-phenyl)-1-methyl-4-[[2,2,2-trifluoro-1-(methoxymethyl)-1-methyl-ethyl]sulfamoyl]pyrrole-2-carboxamide] are 0.1 µM and 14.1 µM.
On the same counts, the results for `Cc1cc(NC(=O)c2c(Br)c(S(=O)(=O)N[C@H](C)C(F)(F)F)cn2C)ccc1F` [Compound 308, 3-bromo-N-(4-fluoro-3-methyl-phenyl)-1-methyl-4-[[(1R)-2,2,2-trifluoro-1-methyl-ethyl]sulfamoyl]pyrrole-2-carboxamide] are 0.01 µM and > 25 µM.
On the same counts, the results for `Cn1cc(S(=O)(=O)NC2(C(F)(F)F)CCC2)c(F)c1C(=O)Nc1ccc(F)c(C#N)c1` [Compound 319, N-(3-cyano-4-fluoro-phenyl)-3-fluoro-1-methyl-4-[[1-(trifluoromethyl)cyclobutyl]sulfamoyl]pyrrole-2-carboxamide] are < 0.004 µM and > 25 µM.
Consider `C[C@@H](NS(=O)(=O)c1c(F)c(C(=O)Nc2ccc(F)c(C#N)c2F)n(C)c1Cl)C(F)(F)F` [Compound 314, 5-chloro-N-(3-cyano-2,4-difluoro-phenyl)-3-fluoro-1-methyl-4-[[(1R)-2,2,2-trifluoro-1-methyl-ethyl]sulfamoyl]pyrrole-2-carboxamide], for which the EC50 in the data set with HBV was determined as 0.007 µM. In addition, the CC50 at 4 days in data set [1] was > 25 µM.
On the same counts, the results for `C[C@@H](NS(=O)(=O)c1c(F)c(C(=O)Nc2ccc(F)c(C#N)c2F)n(C)c1Br)C(F)(F)F` [Compound 315, 5-bromo-N-(3-cyano-2,4-difluoro-phenyl)-3-fluoro-1-methyl-4-[[(1R)-2,2,2-trifluoro-1-methyl-ethyl]sulfamoyl]pyrrole-2-carboxamide] are 0.007 µM and > 25 µM.
For `C[C@@H](NS(=O)(=O)c1cn(C)c(C(=O)Nc2ccc(F)cc2)c1F)C(F)(F)F` [Compound 285, 3-fluoro-N-(4-fluorophenyl)-1-methyl-4-[[(1R)-2,2,2-trifluoro-1-methyl-ethyl]sulfamoyl]pyrrole-2-carboxamide] the same measures were 0.007 µM and > 25 µM.
Turning to `Cn1cc(S(=O)(=O)NC2(C)COC2)c(F)c1C(=O)Nc1ccc(F)c(Cl)c1` [Compound 108, N-(3-Chloro-4-fluorophenyl)-3-fluoro-1-methyl-4-[(3-methyloxetan-3-yl)sulfamoyl]-1H-pyrrole-2-carboxamide], the EC50 in the data set with HBV is 0.01 µM. For the same compound, in data set [1], the CC50 at 4 days was > 25 µM.
For `CC[C@@H](NS(=O)(=O)c1cn(C)c(C(=O)Nc2ccc(F)c(C#N)c2)c1Cl)C(F)(F)F` [Compound 290, 3-chloro-N-(3-cyano-4-fluoro-phenyl)-1-methyl-4-[[(1R)-1-(trifluoro-methyl)propyl]sulfamoyl]pyrrole-2-carboxamide] the same measures were 0.02 µM and > 25 µM.
For `C[C@H](NS(=O)(=O)c1cn(C)c(C(=O)Nc2ccc(F)c(C#N)c2)c1F)C(C)(F)F` [Compound 318, N-(3-cyano-4-fluoro-phenyl)-4-[[(1S)-2,2-difluoro-1-methyl-propyl]sulfamoyl]-3-fluoro-1-methyl-pyrrole-2-carboxamide], the EC50 with HBV was found to be 0.019 µM. Also, the CC50 at 4 days in data set [1] is > 25 µM.
For `CC[C@H](NS(=O)(=O)c1cn(C)c(C(=O)Nc2ccc(F)c(C#N)c2)c1F)C(F)(F)F` [Compound 284, N-(3-cyano-4-fluoro-phenyl)-3-fluoro-1-methyl-4-[[(1S)-1-(trifluoro-methyl)propyl]sulfamoyl]pyrrole-2-carboxamide] the same measures were 0.009 µM and > 25 µM.
Regarding `Cc1c(S(=O)(=O)N[C@H](C)C(F)(F)F)c(F)c(C(=O)Nc2ccc(F)c(C#N)c2)n1C` [Compound 299, N-(3-cyano-4-fluoro-phenyl)-3-fluoro-1,5-dimethyl-4-[[(1R)-2,2,2-trifluoro-1-methyl-ethyl]sulfamoyl]pyrrole-2-carboxamide], the EC50 with HBV came to 0.009 µM. The CC50 at 4 days in data set [1] was > 25 µM.
On the same counts, the results for `C[C@@H](NS(=O)(=O)c1cn(C)c(C(=O)Nc2ccc(F)c(C(F)F)c2)c1F)C(F)(F)F` [Compound 286, N-[3-(difluoromethyl)-4-fluoro-phenyl]-3-fluoro-1-methyl-4-[[(1R)-2,2,2-trifluoro-1-methyl-ethyl]sulfamoyl]pyrrole-2-carboxamide] are 0.005 µM and 21.9 µM.
For `C[C@@H](NS(=O)(=O)c1cn(C)c(C(=O)Nc2ccc(F)c(C#N)c2)c1Br)C(F)(F)F` [Compound 292, 3-bromo-N-(3-cyano-4-fluoro-phenyl)-1-methyl-4-[[(1R)-2,2,2-trifluoro-1-methyl-ethyl]sulfamoyl]pyrrole-2-carboxamide] the same measures were 0.03 µM and 15.5 µM.
On the same counts, the results for `C[C@@H](NS(=O)(=O)c1c(F)c(C(=O)Nc2ccc(F)c(C#N)c2)n(C)c1Br)C(F)(F)F` [Compound 301, 5-bromo-N-(3-cyano-4-fluoro-phenyl)-3-fluoro-1-methyl-4-[[(1R)-2,2,2-trifluoro-1-methyl-ethyl]sulfamoyl]pyrrole-2-carboxamide] are 0.007 µM and > 25 µM.
